Measurements reported in ChEMBL document CHEMBL5260795, “Antifungal potential of marine natural products” (Eur J Med Chem, 2017).
In brackets after ≈: the same amount, converted by molar mass.

How the values were obtained:
[1] = tested on: Candida albicans; experiment: Antifungal activity against Candida albicans; type: functional, organism-based
[2] = tested on: Candida albicans; experiment: Antifungal activity against Candida albicans assessed as fungal growth inhibition; type: functional
[3] = tested on: Saccharomyces cerevisiae; experiment: Antifungal activity against Saccharomyces cerevisiae; type: functional
[4] = tested on: Candida albicans; experiment: Antimicrobial activity against Candida albicans assessed as reduction of microbial microbial growth; type: functional
[5] = tested on: Aspergillus niger; experiment: Antimicrobial activity against Aspergillus niger incubated for 72 hrs by standard broth dilution method; type: functional
[6] = tested on: Botrytis cinerea; experiment: Antimicrobial activity against Botrytis cinerea incubated for 72 hrs by standard broth dilution method; type: functional
[7] = tested on: Candida albicans; experiment: Antimicrobial activity against Candida albicans incubated for 72 hrs by standard broth dilution method; type: functional
[8] = tested on: Colletotrichum acutatum; experiment: Antimicrobial activity against Colletotrichum acutatum incubated for 72 hrs by standard broth dilution method; type: functional
[9] = tested on: Rhizoctonia solani; experiment: Antimicrobial activity against Rhizoctonia solani incubated for 72 hrs by standard broth dilution method; type: functional
[10] = tested on: Saccharomyces cerevisiae; experiment: Antimicrobial activity against Saccharomyces cerevisiae incubated for 72 hrs by standard broth dilution method; type: functional
[11] = Inhibition of Candida albicans CaCdr1p transporter assessed as reduction in rhodamine 6G efflux
[12] = Inhibition of Candida albicans CaCdr1p transporter ATPase activity
[13] = tested on: Rhizoctonia solani; experiment: Antifungal activity against Rhizoctonia solani; type: functional
[14] = tested on: Botrytis cinerea; experiment: Antifungal activity against Botrytis cinerea; type: functional
[15] = tested on: Aspergillus niger; experiment: Antifungal activity against Aspergillus niger; type: functional
[16] = tested on: Colletotrichum acutatum; experiment: Antifungal activity against Colletotrichum acutatum; type: functional
[17] = tested on: Gaeumannomyces graminis; experiment: Antimicrobial activity against Gaeumannomyces graminis; type: functional

**Q.** With `C=C(CC[C@@H](C)[C@H]1CC[C@H]2C3=C(CC[C@]12C)[C@@]1(C)CC[C@H](O)C[C@@H]1C(=O)O3)C(C)C` as the molecule, how does the MIC [1] read?
**A.** 0.79 µg/mL (≈ 1.91 µM)

**Q.** Which MIC [2] does the source give for `CCCC[C@H](CC)c1nc2ccccc2c(=O)[nH]1` here?
**A.** 0.62 µg/mL (≈ 2.54 µM)

**Q.** Which MIC [2] does the source give for `CCCC[C@H](CC)C1NC(=O)c2ccccc2N1` (stereo partly drawn) here?
**A.** 0.62 µg/mL (≈ 2.52 µM)

**Q.** With `CCCCCCCCCCCC(=O)N(CCO)CCO` as the molecule, how does the MIC [3] read?
**A.** 0.22 µg/mL (≈ 0.765 µM)

**Q.** Which MIC [4] does the source give for `CC1=CCC[C@H](C)[C@@]1(C)CC/C(C)=C/CC/C(C)=C/CS(=O)(=O)CCNC(=N)N` here?
**A.** 0.5 µg/mL

**Q.** With `C[C@@H]1NC(=O)[C@@H](Cc2ccccc2)NC(=O)[C@@H](CO)NC(=O)c2ccccc2NC(=O)/C(=C\c2c[nH]c3ccccc23)NC(=O)[C@H]([C@@H](C)O)NC1=O` as the molecule, how does the MIC [1] read?
**A.** 2.48 µg/mL (≈ 3.49 µM)

**Q.** For `C[C@@H]1CCCCC/C=C/[C@H](O)C[C@@H](O)C/C=C\C=C\[C@@H](O)C/C=C/C=C\C(=O)O1`, which MIC [5] is on record?
**A.** 0.02 µg/mL (≈ 0.0494 µM)

**Q.** What about the MIC [6] of the same molecule?
**A.** 0.02 µg/mL (≈ 0.0494 µM)

**Q.** And the MIC [7]?
**A.** 0.02 µg/mL (≈ 0.0494 µM)

**Q.** What about the MIC [8] of the same molecule?
**A.** 0.02 µg/mL (≈ 0.0494 µM)

**Q.** And the MIC [9]?
**A.** 0.02 µg/mL (≈ 0.0494 µM)

**Q.** What about the MIC [10] of the same molecule?
**A.** 0.02 µg/mL (≈ 0.0494 µM)

**Q.** Which results are given for `CCC[C@@H]1CC(=O)N[C@@H](CC(C)C)C(=O)N[C@H](Cc2ccccc2)C(=O)N[C@@H](CC(C)C)C(=O)N[C@@H](Cc2ccccc2)C(=O)O1`?
**A.** IC50 [11]: 2.29 µg/mL (≈ 3.61 µM); IC50 [12]: 0.31 µg/mL (≈ 0.488 µM)

**Q.** For `C[C@@H]1CCC/C=C/C=C/[C@H](O)C[C@@H](O)C/C=C\C=C\[C@@H](OC(=O)CCC(=O)O[C@H]2O[C@@H](CO)[C@H](O)[C@@H](O)[C@@H]2O)C/C=C/C=C\C(=O)O1`, which MIC [5] is on record?
**A.** 0.02 µg/mL (≈ 0.0301 µM)

**Q.** And the MIC [6]?
**A.** 0.02 µg/mL (≈ 0.0301 µM)

**Q.** What about the MIC [7] of the same molecule?
**A.** 0.02 µg/mL (≈ 0.0301 µM)

**Q.** And the MIC [8]?
**A.** 0.02 µg/mL (≈ 0.0301 µM)

**Q.** What about the MIC [9] of the same molecule?
**A.** 0.02 µg/mL (≈ 0.0301 µM)

**Q.** And the MIC [10]?
**A.** 0.02 µg/mL (≈ 0.0301 µM)

**Q.** Which MIC [1] does the source give for `CC(C)C[C@H](NC(=O)[C@@H](CCCNC(=N)N)NC(=O)[C@H](NC(=O)[C@H](NC(=O)[C@@H](NC(=O)[C@H](O)[C@H](O)[C@H](CCCNC(=N)N)NC(=O)[C@@H](C)NC(=O)[C@H](C)[C@H](O)[C@H](C)CC(C)C)[C@@H](C)[C@@H](C)C(N)=O)[C@@H](C)O)[C@@H](C)O)C(=O)N(C)[C@@H](CCC(N)=O)C(=O)O` here?
**A.** 0.1 µg/mL (≈ 0.0803 µM)

**Q.** Which MIC [13] does the source give for `CCCCCCCCCCCCCCC(=O)OCC(O)CO[C@@H]1O[C@H](CO[C@@H]2C[C@H](CO)[C@@H](O)[C@H](O)[C@H]2O)[C@@H](O)[C@H](O)[C@H]1O` (stereo partly drawn) here?
**A.** 0.02 µg/mL (≈ 0.0313 µM)

**Q.** And the MIC [1]?
**A.** 0.02 µg/mL (≈ 0.0313 µM)

**Q.** And the MIC [14]?
**A.** 0.02 µg/mL (≈ 0.0313 µM)

**Q.** What about the MIC [15] of the same molecule?
**A.** 0.02 µg/mL (≈ 0.0313 µM)

**Q.** And the MIC [16]?
**A.** 0.02 µg/mL (≈ 0.0313 µM)

**Q.** With `C=C[C@@](C)(CC/C=C(\C)CC[C@]1(C)C(C=O)=CCC[C@H]1C)S(=O)(=O)CCNC(=N)N` as the molecule, how does the MIC [4] read?
**A.** 4 µg/mL

**Q.** For `CC[C@H](CCCCCCCCCCCCC(=O)N[C@@H](C)C(=O)O)O[C@@H]1O[C@H](COC(=O)CCC(=O)O)[C@@H](O)[C@H](O)[C@H]1O`, which MIC [13] is on record?
**A.** 0.02 µg/mL (≈ 0.033 µM)

**Q.** What about the MIC [1] of the same molecule?
**A.** 0.02 µg/mL (≈ 0.033 µM)

**Q.** What about the MIC [14] of the same molecule?
**A.** 0.02 µg/mL (≈ 0.033 µM)

**Q.** And the MIC [15]?
**A.** 0.02 µg/mL (≈ 0.033 µM)

**Q.** What about the MIC [16] of the same molecule?
**A.** 0.02 µg/mL (≈ 0.033 µM)

**Q.** With `C[C@@H]1CCC/C=C/[C@@H]2O[C@](O)(C[C@@H](O)C/C=C\C=C\C(O[C@@H]3O[C@H](CO)[C@@H](O)[C@H](O)[C@H]3O)C/C=C/C=C\C(=O)O1)[C@H]2O` (stereo partly drawn) as the molecule, how does the MIC [3] read?
**A.** 0.22 µg/mL (≈ 0.369 µM)

**Q.** Which MIC [17] does the source give for `CS[C@@]12CC3=CC=C[C@H](O)[C@H]3N1C(=O)[C@@H]1C[C@@H]3C(=O)CC[C@@H](O)[C@@H]3N1C2=O` here?
**A.** 0.25 µg/mL (≈ 0.64 µM)

**Q.** Which MIC [3] does the source give for `CC1CCC/C=C/[C@@H]2O[C@@H](C/C=C\C=C\[C@H](O[C@@H]3O[C@H](CO)[C@@H](O)[C@H](O)[C@H]3O)C/C=C/C=C\C(=O)O1)C[C@@H](O)[C@H]2O` (stereo partly drawn) here?
**A.** 0.22 µg/mL (≈ 0.379 µM)

**Q.** With `CCCCC[C@@H]1CC(=O)N[C@@H](CC(C)C)C(=O)N[C@H](Cc2ccccc2)C(=O)N[C@@H](CC(C)C)C(=O)N[C@@H](Cc2ccccc2)C(=O)O1` as the molecule, how does the IC50 [11] read?
**A.** 3.74 µg/mL (≈ 5.64 µM)

**Q.** And the IC50 [12]?
**A.** 0.46 µg/mL (≈ 0.694 µM)

**Q.** With `C/C=C(\NC(=O)[C@@H](NC(=O)[C@H](O)[C@H](O)[C@H](CCCNC(=N)N)NC(=O)[C@@H](C)NC(=O)[C@H](C)[C@H](O)[C@H](C)CC(C)C)[C@@H](C)[C@@H](C)C(N)=O)C(=O)N[C@@H](C(=O)N[C@H](CCCNC(=N)N)C(=O)O)[C@@H](C)O` as the molecule, how does the MIC [1] read?
**A.** 0.1 µg/mL (≈ 0.103 µM)
